From ChEMBL document CHEMBL1201862, “PubChem BioAssay data set” (2004)
Blank lines part the entries; values can stand above or below the compound they belong to. The source made the active and inactive calls.

Tests used:
[1] = molecular target: Beta-2 adrenergic receptor (Homo sapiens, UniProt P07550); assay: ADRB2 activation measured by internalization – cell-based, FAP fluorogen, flow cytometry, cherry pick 1, dose response (AID 588763); format: functional
[2] = molecular target: T1, Leucine aminopeptidase (Plasmodium falciparum 3D7, UniProt Q8IL11); assay: P. falciparum M17LAP inhibitors, primary screen, biochemical, fluorogenic H-Leu-NHMec substrate, 1536-well (AID 1619); format: functional
T1 sequence (Q8IL11 whole entry): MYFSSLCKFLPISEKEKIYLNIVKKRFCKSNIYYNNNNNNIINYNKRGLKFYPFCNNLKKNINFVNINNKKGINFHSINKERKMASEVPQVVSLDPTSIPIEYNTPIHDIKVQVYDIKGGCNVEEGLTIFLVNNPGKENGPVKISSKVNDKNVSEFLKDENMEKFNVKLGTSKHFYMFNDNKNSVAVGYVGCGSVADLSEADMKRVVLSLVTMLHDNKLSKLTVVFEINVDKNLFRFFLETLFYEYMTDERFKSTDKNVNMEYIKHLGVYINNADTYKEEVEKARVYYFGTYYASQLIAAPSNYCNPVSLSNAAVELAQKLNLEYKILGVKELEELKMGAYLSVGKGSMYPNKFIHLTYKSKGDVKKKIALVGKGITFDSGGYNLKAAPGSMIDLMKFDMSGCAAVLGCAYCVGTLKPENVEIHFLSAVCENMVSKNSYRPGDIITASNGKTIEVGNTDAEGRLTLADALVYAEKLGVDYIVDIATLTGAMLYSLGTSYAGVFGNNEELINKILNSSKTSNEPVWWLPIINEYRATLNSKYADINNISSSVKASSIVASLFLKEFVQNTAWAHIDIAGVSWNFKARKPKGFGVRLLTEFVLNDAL

[3] = tested on: HEK293; assay: cells; format: functional, cell-based; details: Homo sapiens
[4] = molecular target: T2, Nuclear receptor subfamily 0 group B member 1 (Homo sapiens, UniProt P51843); assay: Luminescence-based cell-based high throughput dose response assay for inhibitors of the orphan nuclear receptor subfamily 0, group B, member 1 (DAX1; NR0B1). [Related pubchem assays (depositor defined):AID504766, AID504790]; format: functional
T2 sequence (P51843 whole entry): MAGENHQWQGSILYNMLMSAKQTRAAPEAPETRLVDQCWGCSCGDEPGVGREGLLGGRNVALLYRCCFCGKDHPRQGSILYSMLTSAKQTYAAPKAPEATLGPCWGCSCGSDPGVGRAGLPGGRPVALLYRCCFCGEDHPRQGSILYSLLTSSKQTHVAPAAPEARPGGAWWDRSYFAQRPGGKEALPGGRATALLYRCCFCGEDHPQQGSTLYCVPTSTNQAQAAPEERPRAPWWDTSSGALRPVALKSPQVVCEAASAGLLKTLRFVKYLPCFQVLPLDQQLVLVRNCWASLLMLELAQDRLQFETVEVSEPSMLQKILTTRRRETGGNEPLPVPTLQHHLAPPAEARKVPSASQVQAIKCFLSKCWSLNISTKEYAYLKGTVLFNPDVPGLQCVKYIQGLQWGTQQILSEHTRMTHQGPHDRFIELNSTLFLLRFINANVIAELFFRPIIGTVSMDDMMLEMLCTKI

[5] = molecular target: CAAX prenyl protease 2 (Homo sapiens, UniProt Q9Y256); assay: inhibition of Ras-converting CAAX protease Rce1 – biochemical, yeast membranes, quenched-peptide fluorescence, cherry-pick, dose response (AID 588849)
[6] = molecular target: Trypsin (Sus scrofa, UniProt P00761); assay: trypsin protease activity blockade – biochemical, quenched peptide fluorescence, cherry-pick, selectivity assay for Rce1 protease inhibitor project, dose response (AID 488789)
Trypsin, sequence (P00761 whole entry): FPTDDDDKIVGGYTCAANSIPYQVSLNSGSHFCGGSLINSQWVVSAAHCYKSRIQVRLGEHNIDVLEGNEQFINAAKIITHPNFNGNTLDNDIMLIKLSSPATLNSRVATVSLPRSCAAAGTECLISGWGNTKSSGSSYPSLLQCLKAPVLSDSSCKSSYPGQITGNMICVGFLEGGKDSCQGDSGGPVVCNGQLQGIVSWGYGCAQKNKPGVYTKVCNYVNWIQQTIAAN

CAAX prenyl protease 2, sequence (Q9Y256 whole entry): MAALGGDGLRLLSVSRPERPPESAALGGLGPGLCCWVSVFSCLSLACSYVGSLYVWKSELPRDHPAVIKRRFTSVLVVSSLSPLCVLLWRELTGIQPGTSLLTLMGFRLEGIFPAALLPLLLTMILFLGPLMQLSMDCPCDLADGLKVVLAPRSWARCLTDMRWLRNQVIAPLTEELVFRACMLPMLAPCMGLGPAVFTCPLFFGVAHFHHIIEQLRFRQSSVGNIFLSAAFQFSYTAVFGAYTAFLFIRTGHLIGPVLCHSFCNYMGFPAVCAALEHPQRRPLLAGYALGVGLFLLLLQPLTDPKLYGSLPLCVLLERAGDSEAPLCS
Beta-2 adrenergic receptor, sequence (P07550 whole entry): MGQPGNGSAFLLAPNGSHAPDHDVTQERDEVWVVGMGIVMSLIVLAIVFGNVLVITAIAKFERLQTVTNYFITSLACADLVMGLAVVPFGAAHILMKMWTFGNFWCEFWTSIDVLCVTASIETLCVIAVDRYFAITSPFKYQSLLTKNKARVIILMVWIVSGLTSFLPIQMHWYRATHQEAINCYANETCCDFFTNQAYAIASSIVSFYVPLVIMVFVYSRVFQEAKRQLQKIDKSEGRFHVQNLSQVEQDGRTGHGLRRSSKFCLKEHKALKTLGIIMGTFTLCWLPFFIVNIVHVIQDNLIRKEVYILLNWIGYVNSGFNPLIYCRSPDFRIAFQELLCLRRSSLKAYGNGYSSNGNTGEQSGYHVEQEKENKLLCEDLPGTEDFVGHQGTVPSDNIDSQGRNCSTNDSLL

EC50 [1]: 8.76 µM (active)
SMILES: CCN(Cc1ccccc1)S(=O)(=O)c1cc(C(=O)NC(C)C2CC3CCC2C3)ccc1OC (configuration not stated)

SMILES: Cc1ccc(S(=O)(=O)Oc2cccc(N3C(=O)C4CC=CCC4C3=O)c2)cc1 (configuration not stated)
IC50 [2]: 49.6 µM (active)
IC50 [3]: > 67.5 µM (inactive)
IC50 [4]: > 67.5 µM (inactive)

AC50 [5]: 6.65 µM (active)
SMILES: Cc1nc(N2CCCCC2C)c2c(C)c(C(=O)Nc3ccccc3C(F)(F)F)sc2n1 (configuration not stated)

AC50 [6]: 0.642 µM (active)
AC50 [5]: 14.8 µM (active)
SMILES: CCOC(=O)c1sc2nc(C3CC3)cc(-c3ccc(OC)cc3)c2c1N
